# Target: eIF-2-alpha kinase GCN2 (Homo sapiens) (UniProt Q9P2K8)
# Experiment: Inhibition of GCN2 in human PC3 cell lysates at 30 uM using desthiobiotin-tagged ATP probe AX9989 followed by trypsinization by LC/MS analysis
# Conditions: PC-3
# Sequence of eIF-2-alpha kinase GCN2 (Homo sapiens) (Q9P2K8 whole entry): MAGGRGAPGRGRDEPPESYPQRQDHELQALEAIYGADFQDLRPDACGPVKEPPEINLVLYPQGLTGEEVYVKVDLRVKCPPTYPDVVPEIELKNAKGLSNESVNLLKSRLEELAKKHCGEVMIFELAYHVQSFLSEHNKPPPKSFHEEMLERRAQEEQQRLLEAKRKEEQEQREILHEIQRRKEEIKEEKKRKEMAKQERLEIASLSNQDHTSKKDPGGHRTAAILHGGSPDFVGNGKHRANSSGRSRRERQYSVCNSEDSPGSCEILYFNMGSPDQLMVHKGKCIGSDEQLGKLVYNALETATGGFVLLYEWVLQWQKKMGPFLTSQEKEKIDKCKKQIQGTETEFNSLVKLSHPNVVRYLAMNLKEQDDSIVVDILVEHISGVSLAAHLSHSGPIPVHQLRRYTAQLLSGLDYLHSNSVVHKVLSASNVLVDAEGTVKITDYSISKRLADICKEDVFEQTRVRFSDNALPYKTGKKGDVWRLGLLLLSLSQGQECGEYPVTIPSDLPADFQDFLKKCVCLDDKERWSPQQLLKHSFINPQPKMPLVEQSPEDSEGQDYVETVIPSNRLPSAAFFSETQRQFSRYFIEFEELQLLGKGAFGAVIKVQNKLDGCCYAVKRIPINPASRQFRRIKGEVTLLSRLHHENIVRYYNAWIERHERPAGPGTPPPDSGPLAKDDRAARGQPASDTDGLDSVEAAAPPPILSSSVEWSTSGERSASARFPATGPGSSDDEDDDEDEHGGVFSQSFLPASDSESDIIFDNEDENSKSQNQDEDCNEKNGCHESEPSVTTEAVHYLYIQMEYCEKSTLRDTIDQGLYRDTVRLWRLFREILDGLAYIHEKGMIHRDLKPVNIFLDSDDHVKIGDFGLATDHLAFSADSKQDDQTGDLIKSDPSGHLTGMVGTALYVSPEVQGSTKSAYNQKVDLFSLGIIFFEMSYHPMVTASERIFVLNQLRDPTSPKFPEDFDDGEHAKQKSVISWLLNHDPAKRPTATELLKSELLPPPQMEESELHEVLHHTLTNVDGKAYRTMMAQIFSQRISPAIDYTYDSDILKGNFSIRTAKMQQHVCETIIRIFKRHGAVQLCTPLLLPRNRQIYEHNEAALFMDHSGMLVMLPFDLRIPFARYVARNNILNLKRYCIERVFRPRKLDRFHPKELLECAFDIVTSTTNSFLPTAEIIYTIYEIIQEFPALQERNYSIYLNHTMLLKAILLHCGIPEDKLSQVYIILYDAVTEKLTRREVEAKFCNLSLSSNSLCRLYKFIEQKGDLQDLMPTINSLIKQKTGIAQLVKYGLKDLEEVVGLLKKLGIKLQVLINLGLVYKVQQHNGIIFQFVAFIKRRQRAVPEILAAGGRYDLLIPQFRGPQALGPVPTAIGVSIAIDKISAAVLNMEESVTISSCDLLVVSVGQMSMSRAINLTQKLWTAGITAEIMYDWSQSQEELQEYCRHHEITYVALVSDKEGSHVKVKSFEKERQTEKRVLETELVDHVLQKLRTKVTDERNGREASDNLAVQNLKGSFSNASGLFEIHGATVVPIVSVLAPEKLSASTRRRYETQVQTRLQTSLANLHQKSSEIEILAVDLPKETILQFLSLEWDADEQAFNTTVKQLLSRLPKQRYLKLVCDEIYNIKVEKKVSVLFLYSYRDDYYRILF
row,inhibition [%],SMILES
1,< 35,c1ccc(CNc2nc3ccccc3n3ccnc23)cc1
2,36.9,O[C@H]1CC[C@H](Nc2nc3ccccc3n3ccnc23)CC1
3,< 35,c1ccc2c(c1)nc(NC1CCCCC1)c1nccn12
4,< 35,c1ccc(CCNc2nc3ccccc3n3ccnc23)cc1

# — ChEMBL document CHEMBL2417377, “Hit-to-lead optimization and kinase selectivity of imidazo[1,2-a]quinoxalin-4-amine derived JNK1 inhibitors” (Bioorg Med Chem Lett, 2013)
